Assay results as given in patent publication US20240066027A1 (DOMAIN THERAPEUTICS, priority 2020, published 2024).

Columns and labels:
[1] = target: T1, human PAR-2 (hPAR-2) receptor expressed in HEK-293 T cells in an endogenous manner (Homo sapiens, UniProt P55085); experiment: In vitro human PAR-2 functional antagonist activity using calcium assays (Fluo4AM, FLIPR Tetra); assay type: cell-based; details: HEK-293 T cells stimulated by an EC80 of the 2-Furoyl-LIGRLO-NH2 peptide after 10 min incubation with compound; 20 concentrations, duplicate, two independent experiments
T1 construct: human PAR-2 (hPAR-2) receptor expressed in HEK-293 T cells in an endogenous manner; endogenous in cells; host or cells: HEK-293 T cells
T1 sequence (P55085 26-397): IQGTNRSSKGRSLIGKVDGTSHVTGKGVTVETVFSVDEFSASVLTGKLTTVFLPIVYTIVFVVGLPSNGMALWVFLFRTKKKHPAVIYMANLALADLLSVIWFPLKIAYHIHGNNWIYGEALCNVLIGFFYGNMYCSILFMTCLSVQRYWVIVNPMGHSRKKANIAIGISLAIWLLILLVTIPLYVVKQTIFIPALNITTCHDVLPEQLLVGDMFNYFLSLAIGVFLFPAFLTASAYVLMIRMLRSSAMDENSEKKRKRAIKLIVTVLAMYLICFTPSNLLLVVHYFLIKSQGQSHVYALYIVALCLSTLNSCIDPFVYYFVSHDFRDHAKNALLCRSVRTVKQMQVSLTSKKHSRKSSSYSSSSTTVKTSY
Summary of the method: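 Antagonist activity was taken as the decrease in the calcium response to an EC80 of 2-Furoyl-LIGRLO-NH2, measured over 5 min. The agonist was added after a 10 min compound-alone step on the same plate. The HEK-293 T cells express PAR-2 endogenously and were loaded with 1 μM Fluo4AM. Signals were referenced to buffer and EC80-alone controls.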

| SMILES | IC50 [1] [µM] | melting point [°C] |
| --- | --- | --- |
| O=C(c1cc2c(cn1)c(-c1ccc(Cl)c(F)c1)nn2CC(F)(F)F)N1CCCOCC1 [Example 89, (3-(4-chloro-3-fluorophenyl)-1-(2,2,2-trifluoroethyl)-1H-pyrazolo[4,3-c]pyridin-6-yl)(1,4-oxazepan-4-yl)methanone] | > 10 | 84 to 88 |
| O=C(c1cc2c(cn1)c(-c1ccc(Cl)c(F)c1)nn2CC(F)(F)F)N1CC2CCC(C1)O2 [Example 90, (8-oxa-3-azabicyclo[3.2.1]octan-3-yl)(3-(4-chloro-3-fluorophenyl)-1-(2,2,2-trifluoroethyl)-1H-pyrazolo[4,3-c]pyridin-6-yl)methanone] | > 10 | 198 to 200 |
| COc1ccc(-n2nc(CC(C)C)c3nc(C(=O)N4CCNC(=O)C4(C)C)ccc32)cn1 [Example 92, 4-(3-isobutyl-1-(6-methoxypyridin-3-yl)-1H-pyrazolo[4,3-b]pyridine-5-carbonyl)-3,3-dimethylpiperazin-2-one] | > 10 | 189 to 192 |
| COc1ccc(-n2nc(CC(C)C)c3nc(C(=O)N4CCNC(=O)C4(C)C)ccc32)cc1 [Example 93, 4-(3-isobutyl-1-(4-methoxyphenyl)-1H-pyrazolo[4,3-b]pyridine-5-carbonyl)-3,3-dimethylpiperazin-2-one] | > 10 | 182 to 185 |
| CC(C)Cn1cc(-c2cc(F)cc(F)c2)c2ccc(C(=O)N3CCNC(=O)C3(C)C)nc21 [Example 108, 4-(3-(3,5-difluorophenyl)-1-isobutyl-1H-pyrrolo[2,3-b]pyridine-6-carbonyl)-3,3-dimethylpiperazin-2-one] | 0.02 to 10 | 165 to 170 |
| CC(C)Cn1cc(-c2ccc(N(C)C)nc2)c2ccc(C(=O)N3CCNC(=O)C3(C)C)nc21 [Example 109, 4-(3-(6-(dimethylamino)pyridin-3-yl)-1-isobutyl-1H-pyrrolo[2,3-b]pyridine-6-carbonyl)-3,3-dimethylpiperazin-2-one] | 0.02 to 10 | 205 to 210 |
| CC(C)Cn1cc(-c2ccc(C#N)nc2)c2ccc(C(=O)N3CCNC(=O)C3(C)C)nc21 [Example 110, 5-(6-(2,2-dimethyl-3-oxopiperazine-1-carbonyl)-1-isobutyl-1H-pyrrolo[2,3-b]pyridin-3-yl)picolinonitrile] | 0.02 to 10 | 260 to 265 |
| COc1ccc(-c2cn(CC(C)C)c3nc(C(=O)N4CCNC(=O)C4(C)C)ccc23)cc1 [Example 111, 4-(1-isobutyl-3-(4-methoxyphenyl)-1H-pyrrolo[2,3-b]pyridine-6-carbonyl)-3,3-dimethylpiperazin-2-one] | 0.02 to 10 | 195 to 200 |
